“Also recorded” adds a separate entry of the source. Residues, ends and D or L forms follow the SMILES beside them. *: point of attachment. Myristoyl = CCCCCCCCCCCCCC(=O)*
Columns and labels:
human neutrophils = assay: Inhibition of release of myeloperoxidase (MPO) from PMA-stimulated human neutrophils; assay type: cell-based; conditions: at 100 μM of test peptide; 100 nM PMA
Source text: Human neutrophil isolation: Human neutrophils were isolated according to a slightly modified method previously described by Akasaki T, Koga H, and Sumimoto H., Phosphoinositide 3-kinase-dependent and -independent activation of the small GTPase Rac2 in human neutrophils, J. Biol. Chem. 274:18055-18059, 1999. Alternatively, human neutrophils were isolated as previously described (see Takashi S, OkuboY, Horie S. Contribution of CD54 to human eosinophil and neutrophil superoxide production. J. Appl. Physiol. 91:613-622, 2001) with slight modifications. Briefly, heparinized venous blood was obtained from normal healthy human volunteers, diluted with RPMI-1640 (Cellgro; Mediatech, Inc., Herndon, Va.) at a ratio of 1:1, layered onto a Histopaque (density, 1.077 g/ml; Sigma-Aldrich Co., St. Louis, Mo.), and centrifuged at 400 g for 20 min at 4° C. The supernatant and mononuclear cells at the interface were carefully removed, and erythrocytes in the sediment were lysed in chilled distilled water. Isolated granulocytes were washed twice with Hanks' balanced salts solution (HBSS) and resuspended in HBSS on ice. The neutrophils used for the experiments were of >98% purity with <2% contamination by eosinophils, and the viability was >99% as determined by Trypan blue dye exclusion.
Measurement of released MPO activity: Purified human neutrophils suspended in HBSS were aliquoted at 4×10^6 cells/ml in 15 ml tubes and preincubated with either 50 or 100 μM of test peptide (dissolved in PBS, pH 7.0) for 10 min at 37° C. […] Secretions were quantified by using as a standard, human MPO.
MPO activity in the cell supernatant was assayed using tetramethylbenzidine (TMB) based on a previously established technique (Paige L, Mahmudi-Azer S, Bablitz B, Hage S C, Velazquez J R, Man S F P, and Moqbel R. Rapid Mobilization of intracellularly stored RANTES in response to Interferon-γ in human eosinophils. Blood, 94:23-32, 1999). […] The reaction was terminated by addition of 50 μl of 1M H2SO4 and absorbance was read at 450 nm in a spectrophotometric microplate reader (Molecular Devices, Sunnyvale, Calif.).

NK-92 cells = assay: Inhibition of release of granzyme from NK-92 cells; assay type: cell-based, human
Experimental: Measurement of NK cell granzyme secretion: Granzyme secreted from NK-92 cells was assayed by measuring hydrolysis of Nα-benzyloxycarbonyl-L-lysine thiobenzyl ester (BLT, EMD Bioscience, Inc.) essentially as described previously (Takayama H. Trenn G, Sitkovsky M V. A novel cytotoxic T lymphocyte activation assay. J. Immunol. Methods 104:183-190, 1987). An aliquot of 50 μl of supernatant was transferred to a 96-well plate, and 150 μl of 0.2 mM solution of BLT and 0.22 mM DTNB (Sigma-Aldrich Co.) in phosphate-buffered saline (PBS, pH 7.2) was added to the supernatant. Absorbance at 410 nm was measured after incubation for 30 min at room temperature. Results were expressed as percentage of total cellular enzyme content, using the amount obtained in the same number of triton X-100-lysed cells.
Because standard granzyme from NK-92 cells was not available to use for quantification, we measured both released and intracellular (from lysed cells) levels of granzyme, and expressed the released granzyme as a percentage of total (intracellular and released) for each. To measure intracellular granzyme from NK-92 cells, appropriate aliquots of 0.1% triton X-100-lysed cells were taken for quantification of the enzyme as described above. All data are expressed as percentage of control to minimize variability between cultures.

[1] = Solubility in 0.5 N saline; assay type: physicochemical; conditions: in 0.5 N Saline at pH 6.5
MARCKS = MARCKS phosphorylation in NHBE cells (radiolabeled immunoprecipitation assay); assay type: cell-based, human
Experimental: NHBE cells were labeled with [^32 P]orthophosphate and then exposed to the reagents: (a) Rp-8-Br-PET-cGMP (100 μM); (b) okadaic acid (500 nM); (c) 8-Br-cGMP (1 μM); and (d) PMA (100 nM). MARCKS phosphorylation in response to the treatments was evaluated by immunoprecipitation assay.
To reveal molecular events by which MARCKS links kinase activation to mucin secretion, phosphorylation of MARCKS in response to PKC/PKG activation was investigated in depth, and results are presented as Results-I-4A. […] Once phosphorylated, MARCKS was translocated from the plasma membrane to the cytoplasm. More specifically, the activation of PKC results in MARCKS phosphorylation in NHBE cells. Cells were labeled with [^32 P]orthophosphate for 2 h and then exposed to the stimulatory and/or inhibitory reagents (see below). MARCKS phosphorylation in response to the treatments was evaluated by immunoprecipitation with the following specifics, designated Results-I-4A:
[^32P]phosphate, cells were preincubated for 2 h in phosphate-free Dulbecco's modified Eagle's medium containing 0.2% bovine serum albumin and then labeled with 0.1 mCi/ml [^32 P]orthophosphate (9000 Ci/mmol, PerkinElmer Life Sciences) for 2 h. For labeling with [^3H]myristic acid or ^3H-amino acids, cells were incubated overnight in medium containing 50 μCi/ml [^3H]myristic acid (49 Ci/mmol, PerkinElmer Life Sciences) or 0.2 mCi/ml [^3H]leucine (159 Ci/mmol, PerkinElmer Life Sciences) plus 0.4 mCi/ml [^3H]proline (100 Ci/mmol, PerkinElmer Life Sciences). Following labeling, cells were exposed to stimulatory reagents for 5 min. When an inhibitor was used, cells were preincubated with the inhibitor for 15 min prior to stimulation. At the end of the treatments, cells were lysed in a buffer containing 50 mM Tris-HCl (pH 7.5), 150 mM NaCl, 1 mM EDTA, 10% glycerol, 1% Nonidet P-40, 1 mM phenylmethylsulfonyl fluoride, 1 mM benzamidine, 10 μg/ml pepstatin A, and 10 μg/ml leupeptin. Trichloroacetic acid precipitation and scintillation counting may determine the radiolabeling efficiency in each culture. Immunoprecipitation of MARCKS protein was carried out according to the method of Spizz and Blackshear using cell lysates containing equal counts/min. Spizz et al., J. Biol. Chem. 271, 553-562 (1996). Precipitated proteins were resolved by 8% SDS-polyacrylamide gel electrophoresis and visualized by autoradiography. Anti-human MARCKS antibody (2F12) and nonimmune control antibody (6F6) were used in this assay.
Phosphorylation of MARCKS by PMA was attenuated by Calphostin C (500 nM). NHBE cells also contained substantial amounts of cGMP-dependent protein kinase type 1α (PKG-1α) activity, which was localized to the cytosolic fraction. […] In addition, the phosphorylation of MARCKS induced by PMA was reversed by incubation with 8-Br-cGMP (10 μM).

[2] = inhibitor 500 nM + 100 nM PMA + 1 μM 8-Br-cGMP

For `CCCCCCCCCCCCCC(=O)NCC(=O)N[C@@H](C)C(=O)N[C@@H](CCC(N)=O)C(=O)N[C@@H](Cc1ccccc1)C(=O)N[C@@H](CO)C(=O)N[C@@H](CCCCN)C(=O)N[C@H](C(=O)N[C@@H](C)C(=O)N[C@@H](C)C(=O)N[C@@H](CCCCN)C(=O)NCC(=O)N[C@@H](CCC(=O)O)C(=O)N[C@@H](C)C(=O)N[C@@H](C)C(=O)N[C@@H](C)C(=O)N[C@@H](CCC(=O)O)C(=O)N[C@@H](CCCNC(=N)N)C(=O)N1CCC[C@H]1C(=O)NCC(=O)N[C@@H](CCC(=O)O)C(=O)N[C@@H](C)C(=O)N[C@@H](C)C(=O)N[C@H](C(=O)N[C@@H](C)C(=O)O)C(C)C)[C@@H](C)O` [MANS peptide] (Myristoyl-GAQFSKTAAKGEAAAERPGEAAVA-OH; C-terminus assumed), the “% Inhibition MPO” value (human neutrophils) was 31.2%, the “Reduction in granzyme secretion relative to the PMA control reference” value (NK-92 cells; 100 μM peptide, 100 nM PMA 2 hour) was “about 60%” and the “% Inhibition Granzyme” value (NK-92 cells; at 50 μM of test peptide) was 76.0%. The solubility [1] was less than 5000 µg/mL.
With `CCCCCCCCCCCCCC(=O)O[C@@H]1[C@@H](C)[C@@]2(O)[C@@H](C=C(CO)C[C@]3(O)C(=O)C(C)=C[C@@H]23)[C@@H]2C(C)(C)[C@]12OC(C)=O` [PMA, phorbol 12-myristate 13-acetate] the “Granzyme secretion relative to control as 100%” value (NK-92 cells; 100 nM PMA, 2 hour incubation) was “about 220%”, the “Increase in MARCKS phosphorylation” value (MARCKS; PMA 100 nM) was 3-4 fold and the “MARCKS phosphorylation (band in immunoprecipitation assay)” value (MARCKS; reagent 100 nM alone) was “dark band; also recorded: very dark band; also recorded: showed a band; also recorded: strong band; also recorded: phosphorylated”.
With `C=C1[C@@H](O)[C@@H]2O[C@]3(CC[C@H](/C=C/[C@@H](C)[C@@H]4CC(C)=C[C@@]5(O[C@H](C[C@@](C)(O)C(=O)O)CC[C@H]5O)O4)O3)CC[C@H]2O[C@@H]1[C@@H](O)C[C@H](C)[C@H]1O[C@@]2(CCCCO2)CC[C@H]1C` [okadaic acid] the “Effect on reversal of MARCKS phosphorylation by 8-Br-cGMP (10 μM)” value (MARCKS; 500 nM (Example 6)) was “inhibited this effect”, the “MARCKS phosphorylation (band in immunoprecipitation assay)” value (MARCKS; inhibitor 500 nM + 100 nM PMA) was “dark band” and the “MARCKS phosphorylation (band in immunoprecipitation assay)” value (MARCKS; [2]) was “dark band”. The “MARCKS phosphorylation (band in immunoprecipitation assay)” value (MARCKS; inhibitor 500 nM + 100 nM PMA + 1 μM 8-Br-cGMP, listed as Okadaic acid) was “showed a band”, the “MARCKS phosphorylation (band in immunoprecipitation assay)” value (MARCKS; inhibitor 500 nM + 100 nM PMA, listed as Okadaic acid) was “showed a band” and the “MARCKS phosphorylation (band in immunoprecipitation assay)” value (MARCKS; inhibitor 500 nM + 1 μM 8-Br-cGMP) was “medium dark band”. The “MARCKS phosphorylation (band in immunoprecipitation assay)” value (MARCKS; inhibitor 500 nM + 1 μM 8-Br-cGMP, listed as Okadaic acid) was “faint band” and the “MARCKS phosphorylation (band in immunoprecipitation assay)” value (MARCKS; inhibitor 500 nM alone) was “faint band”.
In the case of `CCCCCCCCCCCCCC(=O)NCC(=O)N[C@@H](C)C(=O)N[C@@H](CCC(N)=O)C(=O)N[C@@H](Cc1ccccc1)C(=O)N[C@@H](CO)C(=O)N[C@@H](CCCCN)C(=O)N[C@H](C(=O)N[C@@H](C)C(=O)N[C@@H](C)C(=O)N[C@@H](CCCCN)C(=O)NCC(=O)N[C@@H](CCC(=O)O)C(=O)O)[C@@H](C)O` [SEQ ID NO: 13, N-myristoyl-GAQFSKTAAKGE] (Myristoyl-GAQFSKTAAKGE-OH; C-terminus assumed), the “% Inhibition MPO” value (human neutrophils) is reported as 43.2% and the solubility [1] is reported as greater than 2000 µg/mL.
Compound `CCCCCCCCCCCCCC(=O)NCC(=O)N[C@@H](C)C(=O)N[C@@H](CCC(N)=O)C(=O)N[C@@H](Cc1ccccc1)C(=O)N[C@@H](CO)C(=O)N[C@@H](CCCCN)C(=O)N[C@H](C(=O)N[C@@H](C)C(=O)N[C@@H](C)C(=O)N[C@@H](CCCCN)C(=O)O)[C@@H](C)O` [SEQ ID NO: 15, N-myristoyl-GAQFSKTAAK] (Myristoyl-GAQFSKTAAK-OH; C-terminus assumed) has a solubility [1] greater than 10000 µg/mL.
In the case of `C[C@@](O)(/C=C/[C@H]1CC=CC(=O)O1)[C@@H](C[C@@H](O)\C=C/C=C\C=C\CO)OP(=O)(O)O` [fostriecin], the “Effect on PKG-induced MARCKS dephosphorylation” value (MARCKS; 1-500 nM, with PMA 100 nM + 8-Br-cGMP 1 μM) is reported as “inhibited PKG-induced MARCKS dephosphorylation in a concentration-dependent manner”, the “MARCKS phosphorylation (band in immunoprecipitation assay)” value (MARCKS; [2]) is reported as “strong band” and the “MARCKS phosphorylation (band in immunoprecipitation assay)” value (MARCKS; inhibitor alone, concentration not stated (I-5C lane 9)) is reported as “only a trace amount”.
With `Nc1nc2c(nc(Br)n2[C@@H]2O[C@@H]3COP(=O)(O)O[C@H]3[C@H]2O)c(=O)[nH]1` [8-Br-cGMP] the “Effect on PMA-induced phosphorylation of MARCKS” value (MARCKS; 8-Br-cGMP 10 μM (Example 6)) was “reversed” and the “MARCKS phosphorylation (band in immunoprecipitation assay)” value (MARCKS; reagent 1 μM alone) was “faint band; also recorded: no band; also recorded: only a trace amount”.

Reference: US8501911B2, “Methods of reducing inflammation and mucus hypersecretion” (Biomarck Pharmaceuticals, Ltd, priority 1999, dated 2013)
